Laboratory results from patent publication US4277468A, “11-Methylene steroids, their preparation and pharmaceutical preparations containing them” (Schering Aktiengesellschaft, priority 1979, dated 1981).

Assays:
ovulation = assay: Ovulation inhibition test on rats, subcutaneous application, determined by tubal inspection; format: in vivo
Method: OVULATION INHIBITION IN RATS AFTER
SUBCUTANEOUS APPLICATION
The ovulation inhibition was determined by tubal inspection.

Androgenic side effects = conditions: in words, relative to B

SMILES	Ovulation inhibition in rats after subcutaneous application (% inhibition) (ovulation; dose 0.03 mg)	Ovulation inhibition in rats after subcutaneous application (% inhibition) (ovulation; dose 0.1 mg)	Ovulation inhibition strength relative to ethynyl compound B (ovulation; seen from the table)	Androgenic side effects compared with B (Androgenic side effects)
C=C1C[C@@]2(CC)[C@@H](CC[C@@]2(O)C#CCl)[C@@H]2CCC3=CC(=O)CC[C@@H]3[C@@H]12 [A, 17α-chloroethynyl-17β-hydroxy-18-methyl-11-methylene-4-estren-3-one]	83%	100%	at least three times stronger than ethynyl compound B	less androgenic side effects than B
C#C[C@]1(O)CC[C@H]2[C@@H]3CCC4=CC(=O)CC[C@@H]4[C@H]3C(=C)C[C@@]21CC [B, 17α-ethynyl-17β-hydroxy-18-methyl-11-methylene-4-estren-3-one, reference compound]	0%	100%	–	–
